The record followed here is ChEMBL document CHEMBL4196033, “Potent hydrazone derivatives targeting esophageal cancer cells” (Eur J Med Chem, 2018).

SMILES strings stand for the structures. Activity calls are given as the source filed them. The calls are words filed in the database; no cut-off is given here.

In assay [1] the test system is EC9706. In words: Cell cycle arrest in human EC9706 cells assessed as increase in S phase population at 2 uM after 24 hrs by propidium iodide staining based flow cytometry relative to control. Format: functional. A general note: A flow cytometer gives signals particle by particle.
Assay [2] relates to ECa-109 cell line. The experiment in a line: Cell cycle arrest in human EC109 cells assessed as accumulation at G0/G1 phase after 24 hrs by propidium iodide staining based flow cytometry. Type of assay: functional.
Assay [3] has as its system ECa-109 cell line. In words: Induction of apoptosis in human EC109 cells assessed as necrotic cells at 8 uM after 48 hrs in presence of caspase inhibitor Z-VAD-FMK by Annexin V-FITC/propidium iodide staining based flow cytometry (reference value: 2.37%). Type of assay: functional.
For assay [4], the system named is ECa-109 cell line. The experiment in a line: Induction of apoptosis in human EC109 cells assessed as late apoptotic cells at 2 uM after 48 hrs by Annexin V-FITC/propidium iodide staining based flow cytometry (reference value: 0.2 to 1.74%). Format: functional.
In assay [5] the test system is EC9706. The experiment in a line: Induction of apoptosis in human EC9706 cells assessed as late apoptotic cells at 4 uM after 48 hrs in presence of caspase inhibitor Z-VAD-FMK by Annexin V-FITC/propidium iodide staining based flow cytometry (reference value: 1.27%). Format: functional.
Assay [6] deals with EC9706. In words: Effect on Prxs-3 protein expression in human EC9706 cells at 2 to 8 uM after 48 hrs by Western blot analysis. Format: functional, cell-based. A general note: A western blot detects proteins with antibodies after separation by electrophoresis.
Assay [7] concerns EC9706. In words: Antiproliferative activity against human EC9706 cells after 48 hrs by MTT assay. Format: functional, cell-based. The conditions noted are these: EC9706, 48 h. Background: Tetrazolium assays rely on reduction of a dye to a coloured formazan, in cell work by metabolically active cells.
Assay [8] deals with ECa-109 cell line. In words: Induction of apoptosis in human EC109 cells assessed as live cells at 2 uM after 48 hrs by Annexin V-FITC/propidium iodide staining based flow cytometry (reference value: 95.2 to 99%). Type of assay: functional.
Assay [9] has as its system EC9706. In words: Antiproliferative activity against human EC9706 cells after 24 hrs by MTT assay. Format: functional, cell-based. The note with it: EC9706, 24 h.
In assay [10] the test system is EC9706. The experiment in a line: Induction of apoptosis in human EC9706 cells assessed as live cells at 4 uM after 48 hrs in presence of caspase inhibitor Z-VAD-FMK by Annexin V-FITC/propidium iodide staining based flow cytometry (reference value: 95.7%). Format: functional.

The term IC50 denotes the concentration that inhibits the measured activity by half. Read a low IC50 as greater potency. For `COc1ccc(/C=N/NC(=O)c2cccc(S(=O)(=O)N3CCOCC3)c2)c(O)c1`, the “fold change (FC)” value in the assay with EC9706 [1] is 1.54. Further, the Activity result in the assay with ECa-109 cell line [2] was “Dose-dependent effect”; with ECa-109 cell line [3] it was 17.6%; with ECa-109 cell line [4], 6.84%; in the assay with EC9706 [5], 20.7%; in the assay with ECa-109 cell line [8], 79.1%; in the assay on EC9706 [10] it was 42.1%. Moreover, in the assay with EC9706 [6], the outcome was Active. Further, the figures for the IC50 in the assay with EC9706 [7] and in the assay on EC9706 [9] were 7.51 µM and more than 20 µM, respectively.
